The record followed here is patent publication US6780872B2, “Tricyclic dihydropyrazolone and tricyclic dihydroisoxazolone potassium channel openers” (Abbott Laboratories, priority 2000, dated 2004).

The test system of this test is guinea-pig urinary bladder (GPB) cells. Description: Membrane hyperpolarization (MHP) assay, DiBAC(4)3 dye, FLIPR. The test is classed as cell-based. The settings on record: Cavia porcellus; for Emax: maximal steady-state hyperpolarization in GPB cells, normalized to response with 10 μM P1075 (=100%); for pEC50: membrane hyperpolarization in GPB cells, concentration eliciting 50% of the maximal response of the test sample. The protocol: Compounds were evaluated for potassium channel opening activity using primary cultured guinea-pig urinary bladder (GPB) cells.
For the preparation of urinary bladder smooth muscle cells, urinary bladders were removed from male guinea-pigs (Hartley, Charles River, Wilmington, Mass.) weighing 300-400 g and placed in ice-cold Ca^2+-free Krebs solution (Composition, mM: KCl, 2.7; KH2PO4, 1.5; NaCl, 75; Na2HPO4, 9.6; Na2HPO4.7H2O, 8; MgSO4, 2; glucose, 5; HEPES, 10; pH 7.4). Cells were isolated by enzymatic dissociation as previously described with minor modifications in (Klockner, U. and Isenberg, G., Pflugers Arch. 1985, 405, 329-339), hereby incorporated by reference. The bladder was cut into small sections and incubated in 5 mL of the Kreb's solution containing 1 mg/mL collagenase (Sigma, St. Louis, Mo.) and 0.2 mg/mL pronase (Calbiochem, La Jolla, Calif.) with continuous stirring in a cell incubator for 30 minutes. The mixture was then centrifuged at 1300×g for 5 minutes, and the pellet resuspended in Dulbecco's PBS (GIBCO, Gaithersburg, Md.) and recentrifuged to remove residual enzyme. The cell pellet was resuspended in 5 mL growth media (composition: Dulbecco's modified Eagle's medium supplemented with 10% fetal bovine serum, 100 units/mL penicillin, 100 units/mL streptomycin and […] amphotericin B) and further dissociated by pipetting the suspension through a flame-polished Pasteur pipette and passing it through a polypropylene mesh membrane (Spectrum, Houston, Tex.). The cell density was adjusted to 100,000 cells/mL by resuspension in growth media. Cells were plated in clear-bottomed black 96-well plates (Packard) for membrane potential studies at a density of 20,000 cells/well and maintained in a cell incubator with 90% air: 10% CO2 until confluent. Cells were confirmed to be of smooth muscle type by cytoskeletal staining using a monoclonal mouse anti human-α-smooth muscle actin (Biomeda, Foster City, Calif.).
Functional activity at potassium channels was measured by evaluating changes in membrane potential using the bis-oxonol dye DiBAC(4)3 (Molecular Probes) in a 96-well cell-based kinetic assay system, Fluorescent Imaging Plate Reader (FLIPR) (K. S. Schroeder et al., J. Biomed. Screen., v. 1 pp. 7581 (1996)), hereby incorporated by reference. DiBAC(4) is an anionic potentiometric probe which partitions between cells and extracellular solution in a membrane potential-dependent manner. With increasing membrane potential (for example, K^+ depolarization), the probe further partitions into the cell; this is measured as an increase in fluorescence due to dye interaction with intracellular lipids and proteins. Conversely, decreasing membrane potential (hyperpolarization by potassium channel openers) evokes a decrease in fluorescence.
Confluent guinea-pig urinary bladder cells cultured in black clear-bottomed 96-well plates were rinsed twice with […] assay buffer (composition, mM: HEPES, 20; NaCl, 120; KCl, 2; CaCl2, 2; MgCl2, 1; glucose, 5; pH 7.4 at 25° C.) containing 5 μM DiBAC(4) and incubated with […] of the buffer in a cell incubator for 30 minutes at 37° C. to ensure dye distribution across the membrane. After recording the baseline fluorescence for 5 minutes, the reference or test compounds, prepared at 10 times the concentration in the assay buffer, were added directly to the wells. Changes in fluorescence were monitored for an additional 25 minutes. Hyperpolarization responses were corrected for any background noise and were normalized to the response observed with 10 μM of the reference compound P1075, N″-cyano-N-(tert-pentyl)-N′-(3-pyridinyl)guanidine, which was assigned as 100%. P1075 is a potent opener of smooth muscle KATP channels (Quast et al., Mol. Pharmacol., v. 43 pp. 474-481 (1993)) and was prepared using the procedures described in (Manley, J. Med. Chem. (1992) 35, 2327-2340), hereby incorporated by reference. […]

pEC50: −log10 of the molar value.

Usually Emax stands for the size of the effect at its maximum, as opposed to the concentration needed. The term pEC50 denotes the EC50 on a negative log10 scale, so that one unit is a factor of ten. A high value points to a low EC50. In turn, `Cn1[nH]c(=O)c2c1NC1=C(C(=O)CC1)C2c1ccc(F)c(Br)c1` (centres unmarked) [Example 1, 4-(3-bromo-4-fluorophenyl)-1-methyl-1,2,4,6,7,8-hexahydrocyclopenta[b]pyrazolo[4,3-e]pyridine-3,5-dione] had a maximal effect (Emax) of 91% and a negative-log EC50 (pEC50) of 6.26.

Molecule `O=C1CCC2=C1C(c1ccc(F)c(Br)c1)c1c([nH][nH]c1=O)N2` (centres unmarked) [Example 2, 4-(3-bromo-4-fluorophenyl)-1,2,4,6,7,8-hexahydrocyclopenta[b]pyrazolo[4,3-e]pyridine-3,5-dione] gave an Emax of 90% and a pEC50 of 5.56. In the same order, the values of `O=C1CCCC2=C1C(c1ccc(F)c(Br)c1)c1c([nH][nH]c1=O)N2` (centres unmarked) [Example 3, 4-(3-bromo-4-fluorophenyl)-4,7,8,9-tetrahydro-1H-pyrazolo[3,4-b]quinoline-3,5(2H,6H)-dione] are 82% and 5.76.

On to `CCn1[nH]c(=O)c2c1NC1=C(C(=O)CC1)C2c1ccc(F)c(Br)c1` (centres unmarked) [Example 4, 4-(3-bromo-4-fluorophenyl)-1-ethyl-1,2,4,6,7,8-hexahydrocyclopenta[b]pyrazolo[4,3-e]pyridine-3,5-dione], for which the Emax was 103% and the pEC50 is 6.57. For `CC(C)(C)n1[nH]c(=O)c2c1NC1=C(C(=O)CC1)C2c1ccc(F)c(Br)c1` (centres unmarked) [Example 5, 4-(3-bromo-4-fluorophenyl)-1-tert-butyl-1,2,4,6,7,8-hexahydrocyclopenta[b]pyrazolo[4,3-e]pyridine-3,5-dione], the negative logarithm of the EC50 (pEC50) is < 5.00. Same read-out and setting: for `O=C1CCC2=C1C(c1ccc(F)c(Br)c1)c1c(n(-c3ccccn3)[nH]c1=O)N2` (centres unmarked) [Example 6, 4-(3-bromo-4-fluorophenyl)-1-(2-pyridinyl)-1,2,4,6,7,8-hexahydrocyclopenta[b]pyrazolo[4,3-e]pyridine-3,5-dione] the value was < 5.00; for `Cn1[nH]c(=O)c2c1NC1=C(C(=O)CC1)C2c1ccc(OC(F)(F)F)cc1` (centres unmarked) [Example 7, 1-methyl-4-[4-(trifluoromethoxy)phenyl]-1,2,4,6,7,8-hexahydrocyclopenta[b]pyrazolo[4,3-e]pyridine-3,5-dione], < 5.00. On to `Cc1ccc(C2C3=C(CCC3=O)Nc3c2c(=O)[nH]n3C)cc1Br` (centres unmarked) [Example 8, 4-(3-bromo-4-methylphenyl)-1-methyl-1,2,4,6,7,8-hexahydrocyclopenta[b]pyrazolo[4,3-e]pyridine-3,5-dione], for which the Emax is 83% and the pEC50 was 6.32.

`Cn1[nH]c(=O)c2c1NC1=C(C(=O)CC1)C2c1ccc(F)c(C(F)(F)F)c1` (centres unmarked) [Example 9, 4-[4-fluoro-3-(trifluoromethyl)phenyl]-1-methyl-1,2,4,6,7,8-hexahydrocyclopenta[b]pyrazolo[4,3-e]pyridine-3,5-dione] showed an Emax of 89% and a pEC50 of 6.17. In the same order, the values of `Cn1[nH]c(=O)c2c1NC1=C(C(=O)CC1)C2c1ccc(Cl)c([N+](=O)[O-])c1` (centres unmarked) [Example 10, 4-(4-chloro-3-nitrophenyl)-1-methyl-1,2,4,6,7,8-hexahydrocyclopenta[b]pyrazolo[4,3-e]pyridine-3,5-dione] are 90% and 5.63. For the molecule `Cc1ccc(C2C3=C(CCC3=O)Nc3c2c(=O)[nH]n3C)cc1I` (centres unmarked) [Example 11, 4-(3-iodo-4-methylphenyl)-1-methyl-1,2,4,6,7,8-hexahydrocyclopenta[b]pyrazolo[4,3-e]pyridine-3,5-dione], the Emax turned out to be 109% and the pEC50 is 6.28. `Cn1[nH]c(=O)c2c1NC1=C(C(=O)CC1)C2c1ccc(F)c(I)c1` (centres unmarked) [Example 12, 4-(4-fluoro-3-iodophenyl)-1-methyl-1,2,4,6,7,8-hexahydrocyclopenta[b]pyrazolo[4,3-e]pyridine-3,5-dione]: the maximal response (Emax) was 101% and the pEC50 was 6.49. As to `Cn1[nH]c(=O)c2c1NC1=C(C(=O)CC1)C2c1ccc(Cl)c(Cl)c1` (centres unmarked) [Example 13, 4-(3,4-dichlorophenyl)-1-methyl-1,2,4,6,7,8-hexahydrocyclopenta[b]pyrazolo[4,3-e]pyridine-3,5-dione], the Emax stood at 101% and the pEC50 was 6.17. Turning to `Cn1[nH]c(=O)c2c1NC1=C(C(=O)CC1)C2c1ccc(F)c(-c2ccco2)c1` (centres unmarked) [Example 14, 4-[4-fluoro-3-(2-furyl)phenyl]-1-methyl-1,2,4,6,7,8-hexahydrocyclopenta[b]pyrazolo[4,3-e]pyridine-3,5-dione], the pEC50 is < 5.00.

In the case of `Cn1[nH]c(=O)c2c1NC1=C(C(=O)CC1)C2c1csc([N+](=O)[O-])c1` (centres unmarked) [Example 15, 1-methyl-4-(5-nitro-3-thienyl)-1,2,4,6,7,8-hexahydrocyclopenta[b]pyrazolo[4,3-e]pyridine-3,5-dione], the Emax was 58% and the pEC50 was 5.11.

`Cn1[nH]c(=O)c2c1NC1=C(C(=O)CC1)C2c1ccc2nonc2c1` (centres unmarked) [Example 16, 4-(2,1,3-benzoxadiazol-5-yl)-1-methyl-1,2,4,6,7,8-hexahydrocyclopenta[b]pyrazolo[4,3-e]pyridine-3,5-dione]: the pEC50 was < 5.00. Same read-out and setting: for `Cn1[nH]c(=O)c2c1NC1=C(C(=O)CC1)C2c1ccc2nsnc2c1` (centres unmarked) [Example 17, 4-(2,1,3-benzothiadiazol-5-yl)-1-methyl-1,2,4,6,7,8-hexahydrocyclopenta[b]pyrazolo[4,3-e]pyridine-3,5-dione] the value was < 5.00. Consider `Cn1[nH]c(=O)c2c1NC1=C(C(=O)CCC1)C2c1ccc(F)c(Br)c1` (centres unmarked) [Example 18, 4-(3-bromo-4-fluorophenyl)-1-methyl-4,7,8,9-tetrahydro-1H-pyrazolo[3,4-b]quinoline-3,5(2H,6H)-dione], for which the Emax was found to be 80% and the pEC50 was 5.71. As for `Cn1[nH]c2c(c1=O)C(c1ccc(F)c(Br)c1)C1=C(CCC1=O)N2` (centres unmarked) [Example 19, 4-(3-bromo-4-fluorophenyl)-2-methyl-1,2,4,6,7,8-hexahydrocyclopenta[b]pyrazolo[4,3-e]pyridine-3,5-dione], the pEC50 is < 5.00. Regarding `O=C1CCC2=C1C(c1ccc(F)c(Br)c1)c1c([nH]n(-c3ccccc3)c1=O)N2` (centres unmarked) [Example 20, 4-(3-bromo-4-fluorophenyl)-2-phenyl-1,2,4,6,7,8-hexahydrocyclopenta[b]pyrazolo[4,3-e]pyridine-3,5-dione], the maximum response (Emax) stood at 48% and the pEC50 is < 5.00.

Turning to `Cn1[nH]c(=O)c2c1NC1=C(C2c2ccc(F)c(Br)c2)S(=O)(=O)CC1` (centres unmarked) [Example 21, 4-(3-bromo-4-fluorophenyl)-1-methyl-1,2,4,6,7,8-hexahydro-3H-pyrazolo[3,4-b]thieno[2,3-e]pyridin-3-one 5,5-dioxide], the pEC50 is < 5.00. The molecule `Cn1[nH]c(=O)c2c1NC1=C(C(=O)C(C)(C)CC1)C2c1ccc(F)c(Br)c1` (centres unmarked) [Example 22, 4-(3-bromo-4-fluorophenyl)-1,6,6-trimethyl-4,7,8,9-tetrahydro-1H-pyrazolo[3,4-b]quinoline-3,5(2H,6H)-dione] showed a maximal effect (Emax) of 105% and a pEC50 of 6.48.

Take `Cn1[nH]c(=O)c2c1NC1=C(C(=O)C(C)(C)CC1)C2c1ccc(F)c(I)c1` (centres unmarked) [Example 23, 4-(4-fluoro-3-iodophenyl)-1,6,6-trimethyl-4,7,8,9-tetrahydro-1H-pyrazolo[3,4-b]quinoline-3,5(2H,6H)-dione]: the Emax turned out to be 90% and the pEC50 is 7.15.
